The values below come from PMC3991622, “Immobilised Histidine Tagged β 2-Adrenoceptor Oriented by a Diazonium Salt Reaction and Its Application in Exploring Drug-Protein Interaction Using Ephedrine and Pseudoephedrine as Probes” (PLoS ONE, 2014).

The EC50 is the concentration at which the effect is half-maximal.

Assay [1] has as its system T1, Immobilized β 2-AR.
T1 construct: made in house; host or cells: E. coli BL21 (DE3)
As to the kind of experiment: Specificity and stability of the oriented β 2-AR column (retention of control drugs). The assay is classed as binding, Sus scrofa. To be noted: 20 mM phosphate buffer (pH 7.4), 0.2 mL/min; for Retention times, Immobilized β 2-AR: 37 °C, void time 1.6 min. On the procedure: (§1) The column containing the oriented immobilised β 2-AR was prepared by packing the stationary phase into a stainless steel column (2.1 mm×5.0 cm) using the slurry method at a pressure of 4.0×10^7 Pa. Phosphate buffer (20 mM, pH 7.4) was used as the slurry solution. The control column containing exposed silica gel and attached histidine was prepared using the same synthesis method as that of the β 2-AR column.
(§2) The mobile phases were prepared by adding 0 to 40 µM of ephedrine hydrochloride as the competing agent to 20 mM phosphate buffer (pH 7.4). All of the mobile phases were filtrated with 0.45 µm Millipore HV filters and degassed by ultrasonication before HPAC analysis. Working solutions of ephedrine and pseudoephedrine were prepared by dissolving the drugs in phosphate buffer (20 mM, pH 7.4) to a concentration of 1.0 mM. The detection wavelength was 220 nm with an injection of 5.0 µL for each drug. The flow rate was 0.2 mL/min for all of the analyses. […] The capacity factor (k') was calculated by detecting the retention time in triplicate for each injected sample using the equation k' = (tR−t0)/t0. When the injection solute was pseudoephedrine, Eq. (1) was used to plot the curve of 1/(k'-X) and [A], whereas Eq. (2) was used to achieve the plot between [drawing 5] and [A] when ephedrine was used as the analyte.
The specificity of the oriented β 2-AR column was tested by determining the retention times of specific drugs on the receptor.

Assay [2] has as its target T2, β 2-AR (Sus scrofa, UniProt Q28997).
T2 construct: made in house; host or cells: E. coli BL21 (DE3)
As to the kind of experiment: Zonal elution on oriented immobilised β 2-AR column (HPAC). To be noted: for concentration of the binding site / capacity factor k′ / association constant / association constant KA: 37 °C; for types of binding site on β 2-AR: linear zonal elution plot. The assay is classed as binding. On the procedure: The binding of ephedrine and pseudoephedrine to the oriented immobilised β 2-AR was determined by zonal elution. The theory assumes that a known concentration of a competing agent (I) continuously passes through a column containing an immobilised ligand (L) while the injecting volume of an analyte (A) is small enough to be neglected compared with the concentration of I in the mobile phase. Assuming I and A have direct competition at a single binding site on L and the interactions have association/dissociation kinetics, Eq. (1) can be used to calculate the binding of A and I to L [24], [25]. [drawing 1] (1) where X is the capacity factor for A due to the existence of a second type of binding site on the column, and k' is the overall capacity factors of A ascribed to all the types of sites. In this case, the equation assumes the capacity factors of A produced by the individual sites are additive, and an independent estimate of the capacity factors due to the second type of site can be obtained, allowing for the capacity factor attributed to the first type of site 1 (Site 1) to be measured by k 1' = k'-X.
When the column is equilibrated with an eluent at concentration [A] and [I] equal to zero, and the retention of compound A is injected as a perturbation, Eq. (2) is used to determine the binding of A to L: [drawing 2] (2)
Assuming a single type of binding site, a linear expression can be obtained by plotting 1/sqrt (k') as a function of [A] to determine mL and K A. For two types of binding sites, a second term is added to the k' expressions.
as §1, §2

Assay [3] deals with β 2-AR. To be noted: on β 2-AR; response relative to isoproterenol; cited from earlier work.
Assay [4] deals with T2, β 2-AR. In words: Thermodynamic study (zonal elution at 10-45 °C, van't Hoff equation) on oriented immobilised β 2-AR. The assay is classed as binding. To be noted: for decrease of association constant / decrease of capacity factor / increase of binding sites: 10 °C to 45 °C; for capacity factor on the β 2-AR column: concentration 4.0 µM; for Kd: Association constant; for main force of the binding: semi-empirical rules of Ross et al.; for ΔS^θ: van't Hoff plot, 10-45 °C. The source says:
The thermodynamic interaction between β 2-AR and ephedrine plus pseudoephedrine was described by the van't Hoff equation, listed as Eq. (3) and (4). [drawing 3] (3) [drawing 4] (4)
In these equations, R is the ideal gas constant (8.31 J/mol/K), and T is the temperature in Kelvin. According to the semi-empirical rules summarised by Ross et al., when ΔG^θ<0, ΔH^θ>0 and ΔS^θ>0, hydrophobic interaction is the main interaction force during the binding process of a drug to protein. […] If ΔG^θ<0, ΔH^θ<0 and ΔS^θ<0, Van der Waals forces or hydrogen bonds are the major forces of the binding.
The thermodynamic investigation of ephedrine and pseudoephedrine on oriented immobilised β 2-AR was performed at 10, 20, 30, 37 and 45 °C. Eq. (3) and (4) were used to calculate the free energy, enthalpy and entropy during the binding of the two drugs to the receptor. The semi-empirical rules by Ross et al. were utilised to reveal the binding mechanism process of the two drugs to β 2-AR.

Assay [5] has as its system papillary muscle. Set-up: method as in PMID 3004791. To be noted: positive inotropic effect on the papillary muscle; cited from earlier work.
Assay [6] concerns the target wild-type β 2-AR. On the set-up: method as in PMID 8095262. To be noted: read-out: dissociation constant; cited from earlier work.
The target of assay [7] is β2-ARGsαS. On the set-up: method as in PMID 9478963. To be noted: read-out: dissociation constant; cited from earlier work.
[8] abbreviates: 12 µM ephedrine in mobile phase.
[9] abbreviates: 24 µM ephedrine in mobile phase.
Where [10] appears, read: 30 µM ephedrine in mobile phase.

Structures are written as SMILES.

T2 sequence (Q28997 whole entry): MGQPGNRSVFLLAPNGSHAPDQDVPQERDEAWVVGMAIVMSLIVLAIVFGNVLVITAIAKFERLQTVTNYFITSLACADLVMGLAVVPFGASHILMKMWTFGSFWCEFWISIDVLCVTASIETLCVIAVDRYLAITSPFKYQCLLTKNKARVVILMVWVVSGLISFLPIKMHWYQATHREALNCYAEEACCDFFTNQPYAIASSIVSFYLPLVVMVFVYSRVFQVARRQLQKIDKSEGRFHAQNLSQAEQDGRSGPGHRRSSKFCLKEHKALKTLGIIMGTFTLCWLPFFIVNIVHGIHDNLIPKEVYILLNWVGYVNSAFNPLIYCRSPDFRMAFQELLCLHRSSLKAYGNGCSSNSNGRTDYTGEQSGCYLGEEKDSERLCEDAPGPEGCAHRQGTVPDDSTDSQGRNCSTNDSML

Consider `COc1cc2nc(N3CCN(C(=O)C4CCCO4)CC3)nc(N)c2cc1OC` (centres unmarked) [terazosin], for which, in assay [1], the “peak retained or non-retained on β 2-AR column” value (“peak retained or non-retained” for short) was “Non-retained” and the “Retention times, Immobilized β 2-AR” value worked out at 1.6 min.
For `CC(C)(C)NCC(O)c1ccccc1Cl` (centres unmarked) [tobuterol], in assay [1], the “peak retained or non-retained” value was “Retained” and the “Retention times, Immobilized β 2-AR” value is 12.5 min. Moreover, the “Retention times, Immobilized β 2-AR” value in assay [1] (listed as Tobuterol) is recorded as 9.9 min.
With `CN[C@@H](C)[C@@H](O)c1ccccc1` [pseudoephedrine, 1S,2S-pseudoephedrine], the “concentration of the binding site” value in assay [2] is “(8.92±0.06) ×10^−4 M”. Besides, the “capacity factor k′” value is 5.87±0.01 in assay [2] (2 µM ephedrine in mobile phase); 5.81±0.01 in assay [2] (4 µM ephedrine in mobile phase); 5.73±0.01 in assay [2] (8 µM ephedrine in mobile phase); 5.66±0.01 in assay [2] (setting [8]); 5.54±0.03 in assay [2] (16 µM ephedrine in mobile phase); 5.47±0.03 in assay [2] (setting [9]). In assay [2] (setting [10]), the “capacity factor k′” value is 5.38±0.01. For the same compound, the “types of binding site on β 2-AR” value in assay [2] was “Only one type of binding site”. For the same compound, in assay [3], the 50% effective concentration (EC50) was 309 µM. The figures for the binding sites in assay [4] (10 °C) and in assay [4] (45 °C) were 807 µM and 948 µM, respectively. In assay [4], the “decrease of association constant” value was 1.5 fold. Besides, the “decrease of capacity factor” value in assay [4] is 1.2 fold. Moreover, the “increase of binding sites” value in assay [4] came out at 1.2 fold. Besides, the “capacity factor on the β 2-AR column” value was found to be 6.36 in assay [4] (10 °C) and 5.60 in assay [4] (45 °C). For the same compound, the Kd in assay [4] (283.15 K) is 202 µM; in assay [4] (293.15 K) it was 239 µM; in assay [4] (303.15 K) it was 249 µM; in assay [4] (310.15 K), 263 µM; in assay [4] (318.15 K), 299 µM. Moreover, the “main force of the binding” value in assay [4] was “electrostatic forces”. Also, in assay [4], the “ΔS^θ” value came out at 44.13±0.01 J/mol·K.
For `CN(C)C(=O)Oc1cc(OC(=O)N(C)C)cc(C(O)CNC(C)(C)C)c1` (centres unmarked) [bambuterol], in assay [1], the “peak retained or non-retained” value is listed as “Retained” and the “Retention times, Immobilized β 2-AR” value was 49.1 min.
The matching figures for `COC(=O)CCc1ccc(OCC(O)CNC(C)C)cc1` (centres unmarked) [esmolol]: “Non-retained” and 1.6 min.
For `CN[C@@H](C)[C@H](O)c1ccccc1` [ephedrine, 1R,2S-ephedrine], the pD2 entry in assay [5] is given as “about 5.95”. The Kd was 168 µM in assay [2]; 8 µM in assay [6]; 139 µM in assay [4] (283.15 K); 149 µM in assay [4] (293.15 K); 161 µM in assay [4] (303.15 K); 168 µM in assay [4] (310.15 K). Also, the Kd in assay [4] (318.15 K) was 193 µM; in assay [7], 5.1 ± 1.3 µM. The “concentration of the binding site” value in assay [2] is recorded as “(8.92±0.06) ×10^−4 M”. For the same compound, the “capacity factor k′” value came to 5.01±0.02 in assay [2] (4 µM ephedrine in mobile phase); 4.84±0.02 in assay [2] (8 µM ephedrine in mobile phase); 4.58±0.03 in assay [2] (setting [8]); 4.31±0.01 in assay [2] (20 µM ephedrine in mobile phase); 4.08±0.01 in assay [2] (setting [9]); 3.80±0.01 in assay [2] (setting [10]). Also, the “capacity factor k′” value in assay [2] (34 µM ephedrine in mobile phase) came to 3.64±0.01. The association constant result in assay [2] (direct competitive study, pseudoephedrine injected, ephedrine as mobile phase additive) was “(5.98±0.24)×10^3 /M”; in assay [2] (self-competitive study, ephedrine as analyte and competing agent) it was “(5.94±0.05)×10^3 /M”. Further, the “association constant KA” value is “KA ephedrine = (5.94±0.05)×10^3 M^−1” in assay [2] (injection analyte ephedrine (self-competitive)); “(5.94±0.05)×10^3 M^−1” in assay [2] (injection analyte ephedrine (self-competitive), listed as 1R,2S-ephedrine); “KA ephedrine = (5.98±0.24)×10^3 M^−1” in assay [2] (injection analyte pseudoephedrine (direct competitive, ephedrine in mobile phase)). Moreover, in assay [2], the “types of binding site on β 2-AR” value is reported as “Only one type of binding site”. Also, the binding sites in assay [4] (10 °C) was found to be 807 µM; in assay [4] (45 °C), 948 µM. The “decrease of association constant” value in assay [4] worked out at 1.4 fold. Moreover, in assay [4], the “decrease of capacity factor” value stood at 1.2 fold. Moreover, in assay [4], the “increase of binding sites” value was found to be 1.2 fold. The “capacity factor on the β 2-AR column” value in assay [4] (10 °C) is on record as 5.40; in assay [4] (45 °C), 4.63. Also, the “contribution of ΔH^θ to ΔG^θ” value in assay [4] (37 °C) worked out at 29.15%. In addition, the “contribution of ΔS^θ to ΔG^θ” value in assay [4] (37 °C) worked out at 70.85%. For the same compound, the “main force of the binding” value in assay [4] is given as “Electrostatic interaction”. In addition, the “ΔS^θ” value in assay [4] amounted to 50.94±0.31 J/mol·K.
Turning to `CC(C)NCC(O)c1ccccc1Cl` (centres unmarked) [clorprenaline], the “peak retained or non-retained” value in assay [1] is recorded as “Retained”. Besides, the “Retention times, Immobilized β 2-AR” value stood at 9.9 min in assay [1] and 12.5 min in assay [1] (listed as Clorprenaline).
For the compound `CN[C@H](C)[C@@H](O)c1ccccc1` [1S,2R-ephedrine], the EC50 in assay [3] was 72 µM.
